Earlier results as cited in patent US7235556B2, “Methods of treating dry eye disorders” (Alcon, Inc., priority 2003, dated 2007).

System: allergic dermal inflammation
Conditions: guinea pig model of eczema; reported in the background section

In the case of CC(C)(C(=O)O)c1cn2nc(NCCCN3CCC(OC(c4ccccc4)c4ccccc4)CC3)ccc2n1.O.O [TAK-427, 2-[6-[[3-[4-(diphenylmethoxy)piperidino]propyl]amino]imidazo[1,2-b]pyridazin-2-yl]2-methylpropionic acid dihydrate], the “inhibition of allergic dermal inflammation” value is listed as “inhibit allergic dermal inflammation”.
